Where two headings read alike, the source gives them in different places.
Experiments:
[1] = tested on: mice; experiment: Charcoal meal transit time; type: in vivo
Description: […] charcoal suspension (20 ml/kg prepared as a 5% solution in 10% gum acacia) was administered perorally 60 min after D8 administration (perorally). After 30 min, charcoal meal administration small intestines were excised and aligned parallel to a ruler. Ratio of the distance traveled by the charcoal meal to the total length of the small intestine was determined for the control (untreated) and Compound I treated mice [Ali, B. H. Bashir, A A. The effect of alpha 2-receptor agonists and antagonists on gastro-intestinal transit time. Clinical and Experimental Pharmacology and Physiology, 20 (1993) 1-6].

[2] = target: CYP 3A4 (liver) (Homo sapiens, UniProt P08684); experiment: Metabolism by CYP 3A4; type: in vitro ADME
CYP 3A4 (liver), sequence (P08684 whole entry, species assumed): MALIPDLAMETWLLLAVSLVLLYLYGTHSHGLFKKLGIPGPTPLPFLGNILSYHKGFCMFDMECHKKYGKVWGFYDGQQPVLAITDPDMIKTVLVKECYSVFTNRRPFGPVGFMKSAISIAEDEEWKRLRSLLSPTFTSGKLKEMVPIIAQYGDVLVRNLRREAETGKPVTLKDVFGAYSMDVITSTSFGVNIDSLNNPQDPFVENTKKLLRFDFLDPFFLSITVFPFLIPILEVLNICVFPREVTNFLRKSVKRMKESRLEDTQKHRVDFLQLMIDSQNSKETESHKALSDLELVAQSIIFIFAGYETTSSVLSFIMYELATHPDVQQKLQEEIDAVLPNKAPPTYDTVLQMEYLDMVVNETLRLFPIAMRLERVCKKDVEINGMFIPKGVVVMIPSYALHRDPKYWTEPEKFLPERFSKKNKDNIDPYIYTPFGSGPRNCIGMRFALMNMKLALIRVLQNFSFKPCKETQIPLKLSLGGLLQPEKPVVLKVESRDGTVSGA

[3] = Plasma binding; type: in vitro ADME
[4] = Organ distribution of ICB/11/D-8; type: in vivo; details: Swiss, mouse, N=4 mice
Description: Organ Distribution of ICB/11/D-8 (ug/100 mg tissue, N=4 mice, 50

[5] = Determination of pharmacokinetics in mice; type: in vivo, swiss mice
Description: Treatment of animal: Healthy swiss mice of both the sexes (25-30) were used. The animals were kept (3/cage) under controlled conditions (temp 26±2° C.; relative humidity 50±5%; 12 h light/dark cycle) and maintained on pelleted rodent diet […]. Ashirwad Industries Ltd. Chandigarh, India). Water was provided ad libitum. Compound I was solubilised in 2% gum acacia by trituration and diluted with normal saline to obtained desired concentration. The compound was administered orally (20 mg/kg BW) or via intravenous route (10 mg/kg bw).
Sampling time: Blood samples were collected at 0, 5, 15 and 30 min, and 1, 2, 4, 6, 8, 16 and 24 hrs post-administration after oral/iv route in pre-labeled heparinised tubes and centrifuged (3500 rpm×10 minutes) to obtain the plasma. A total of 6 animals were used per time point.
(i) Aliquots of plasma (250 ul) were mixed with ethyl acetate (3 ml), vortexed for two minutes (2500 rpm) and centrifuged at 5000 rpm for 10 min. The organic layer was collected and evaporated to dryness using solvent evaporator (Model: SPD 111V, Thermo Electron Corporation, MA). The dried samples were reconstituted in mobile phase for HPLC analysis.
(2) Calibration standards were prepared from aliquots of plasma collected from untreated animals which were spiked with molecule I (0.25 μg-10 μg/ml). […] The extraction efficiency of the molecule from plasma matrix was 90-93%.
HPLC determinations HPLC determinations were done on Thermofinningan chromatograph (Model: SpectraSystem SCM 1000 equipped with quaternary pump P-4000; autosampler AS 3000; UV 6000 LP): diode array detector). Molecule D8 was run under the following conditions:
Column: RP-8 (5 um); Mobile Phase: Acetonitrile:Water (51:49); Wavelength: 272 nm Flow Rate: 1 ml/min; Retention time: 8.035 min; The lower limit of detection (LOD): 3.5 ng/ml; limit of quantitation (LOQ): 10 ng/ml.
Bioavailability indices. A concentration-time curve for Molecule D8 was established and pharmacokinetic parameters (Cmax, Tmax, AUC0-24, Clerance (Cl) and Volume of Distribution (vd) were determined by using a software (PK Solutions version 2.0; Summit Research Services, USA).
Absolute bioavailability was determined using the following formula: AUCoral×doseiv/AUCv×Doseoral.

## COc1cc(C=O)cc2c1[nH]c1ccccc12 [Compound I, 1-methoxy-3-formyl-9H carbazole]
[1]; 12.5 mg/kg p.o.
  % Transport (Mean ± SEM): 74.15 ± 3.4%
[1]; 25 mg/kg p.o.
  % Transport (Mean ± SEM): 76.6 ± 6.7%
[1]; 50 mg/kg p.o.
  % Transport (Mean ± SEM): 77.12 ± 1.49%
[1]; 12.5, 25 and 50 mg/kg
  change in charcoal powder transporting ratio vs control: no significant change in charcoal powder transporting ratio
[2]
  metabolism: metabolized by CYP 3A4 (liver)
[3]
  plasma binding: high plasma binding
[4]; brain, 0.5 hr, read-out: Organ distribution: Brain
  concentration at 0.5 hr: 2300 ng/g
[4]; brain, 2 hr, read-out: Organ distribution: Brain
  concentration at 2 hr: 26700 ng/g
[4]; brain, 4 hr, read-out: Organ distribution: Brain
  concentration at 4 hr: 43300 ng/g
[4]; brain, 12 hr, read-out: Organ distribution: Brain
  concentration at 12 hr: 3600 ng/g
[4]; heart, 50 not found, 0.5 hr, read-out: Organ distribution: Heart
  concentration at 0.5 hr: 185000 ng/g
[4]; heart, 2 hr, read-out: Organ distribution: Heart
  concentration at 2 hr: 263000 ng/g
[4]; heart, 4 hr, read-out: Organ distribution: Heart
  concentration at 4 hr: 168000 ng/g
[4]; heart, 12 hr, read-out: Organ distribution: Heart
  concentration at 12 hr: 32200 ng/g
[4]; intestine, 0.5 hr
  concentration at 0.5 h: 105000 ng/g
[4]; intestine, 2 hr
  concentration at 2 h: 168000 ng/g
[4]; intestine, 4 hr
  concentration at 4 h: 124000 ng/g
[4]; intestine, 12 hr
  concentration at 12 h: 25500 ng/g
[4]; kidneys, 0.5 hr, read-out: Organ distribution: Kidneys
  concentration at 0.5 hr: 135000 ng/g
[4]; kidneys, 2 hr, read-out: Organ distribution: Kidneys
  concentration at 2 hr: 171000 ng/g
[4]; kidneys, 4 hr, read-out: Organ distribution: Kidneys
  concentration at 4 hr: 105000 ng/g
[4]; kidneys, 12 hr, read-out: Organ distribution: Kidneys
  concentration at 12 hr: 15800 ng/g
[4]; liver, 0.5 hr, read-out: Organ distribution: Liver
  concentration at 0.5 hr: 89500 ng/g
[4]; liver, 2 hr, read-out: Organ distribution: Liver
  concentration at 2 hr: 168000 ng/g
[4]; liver, 4 hr, read-out: Organ distribution: Liver
  concentration at 4 hr: 110000 ng/g
[4]; liver, 12 hr, read-out: Organ distribution: Liver
  concentration at 12 hr: 12500 ng/g
[4]; lungs, 50 not found, 2 hr, read-out: Organ distribution: Lungs
  concentration at 2 hr: 273000 ng/g
[4]; lungs, 50 not found, 4 hr, read-out: Organ distribution: Lungs
  concentration at 4 hr: 80700 ng/g
[4]; lungs, 50 not found, 12 hr, read-out: Organ distribution: Lungs
  concentration at 12 hr: 6700 ng/g
[4]; lungs, 0.5 hr, read-out: Organ distribution: Lungs
  concentration at 0.5 hr: 122000 ng/g
[4]; spleen, 50 not found, 0.5 hr, read-out: Organ distribution: Spleen
  concentration at 0.5 hr: 123000 ng/g
[4]; spleen, 50 not found, 2 hr, read-out: Organ distribution: Spleen
  concentration at 2 hr: 140000 ng/g
[4]; spleen, 50 not found, 4 hr, read-out: Organ distribution: Spleen
  concentration at 4 hr: 52500 ng/g
[4]; spleen, 50 not found, 12 hr, read-out: Organ distribution: Spleen
  concentration at 12 hr: 9100 ng/g
[4]; stomach, 0.5 hr, read-out: Organ distribution: Stomach
  concentration at 0.5 hr: 378000 ng/g
[4]; stomach, 2 hr, read-out: Organ distribution: Stomach
  concentration at 2 hr: 689000 ng/g
[4]; stomach, 4 hr, read-out: Organ distribution: Stomach
  concentration at 4 hr: 227000 ng/g
[4]; stomach, 12 hr, read-out: Organ distribution: Stomach
  concentration at 12 hr: 43300 ng/g
[4]; urine, 0.5 hr, read-out: Organ distribution: Urine/ml
  concentration at 0.5 hr: 2600 ng/mL
[4]; urine, 2 hr, read-out: Organ distribution: Urine/ml
  concentration at 2 hr: 6560 ng/mL
[4]; urine, 4 hr, read-out: Organ distribution: Urine/ml
  concentration at 4 hr: 4070 ng/mL
[4]; male, testes, 0.5 hr, read-out: Organ distribution: Testes
  concentration at 0.5 hr: 168000 ng/g
[4]; male, testes, 2 hr, read-out: Organ distribution: Testes
  concentration at 2 hr: 313000 ng/g
[4]; male, testes, 4 hr, read-out: Organ distribution: Testes
  concentration at 4 hr: 58800 ng/g
[4]; male, testes, 12 hr, read-out: Organ distribution: Testes
  concentration at 12 hr: 7800 ng/g
[5]; after 24 hrs
  amounts detected in urine: negligible amounts
[5]; mouse, in vivo
  plasma clearance rate: good plasma clearance rate
  volume of distribution: volume of distribution is high
[5]; oral administration
  intact drug stays in the circulation: ≤ 12 h
